Test results taken from patent US10653779B2, “Formulations with reduced oxidation” (Genentech, Inc., priority 2013, dated 2020).
Entries after “also recorded” stand apart in the source; their conditions may differ.

Tests used:
[1] = Photosensitivity screening: H2O2 formation by antioxidant candidates upon light exposure (Amplex Ultra Red Assay); type: physicochemical
Protocol: As a screening tool, antioxidant candidates were exposed to light for four hours at 250 W/m^2 and the resulting H2O2 formation was quantified by the Amplexassay. Specifically, antioxidants were prepared to 1 mM in 20 mM histidine acetate buffer at pH 5.5. The 1 mM antioxidant solutions were aliquoted into glass vials (2 mL/glass vial) and exposed to four hours of light at 250 W/m^2 in an Atlas SunTest CPS+ Xenon Test Instrument (Chicago, Ill.). Total UV dose was 90 watt-hours/square meter and total visible dose was 0.22 million lux hours over the 4-hour period. Control vials were wrapped in aluminum foil and treated similarly. The amount of hydrogen peroxide generated after exposure to light was measured using the Amplex® Ultra Red Assay (Invitrogen, Carlsbad, Calif.) following the manufacturer's recommended procedure. On addition of horseradish peroxidase (HRP), the dye reacted 1:1 stoichiometrically with H2O2, resulting in the production of fluorescent oxidation product resorufin. In this study, fluorescence readings were obtained using a Spectra Max M2 Micro-plate Reader (Molecular Devices, Sunnyvale, Calif.) with excitation and emission set at 560 nm and 590 nm, respectively. Final H2O2 concentrations were determined using a standard curve ranging from 0 μm to 20 μm. […]

[2] = Cyclic voltammetry (CV) screening of oxidation potentials; type: physicochemical; settings: for Oxidation Potential (anodic peak): glassy carbon working electrode, 0.2 M lithium perchlorate
Protocol: The oxidation/reduction characteristics of the compounds were investigated. Several compounds, including L-Trp and derivatives, were evaluated for the protection of Trp oxidation in proteins using cyclic voltammetry (CV) and rank ordered based on their oxidation potentials (Table 2). Specifically, the candidate antioxidants were dissolved in deionized water and then added to a 0.2 M lithium perchlorate electrolyte solution. […] Solutions were scanned from −0.10 V to +1.50 V at a scan rate of either 100 or 500 mV/sec. The analytical cell was purged for four minutes with nitrogen before scanning of each antioxidant solution. The input was a linear scan of the potential of a working electrode, and the output was measurement of the resulting current. […] Redox reactions were characterized by sharp increases or decreases in current (peaks). The potential at which an oxidation reaction occurred was referred to as the anodic peak potential (or oxidation potential), and the potential at which a reduction occurred was referred to as is the cathodic peak (or reduction) potential.

mAb1 [3] = experiment: mAb1 AAPH stress study; Fab/Fc oxidation by RP-HPLC; type: physicochemical, human; settings: antioxidants at 1 mM; for Fab (Trp residue) oxidation of mAb1 after AAPH incubation: 24 hours at 40° C., label mAb1 = no excipient
Excerpt: (§1) The fragments were reduced with DTT, and then separated and identified via Liquid Chromatography-Mass Spectrometry (LC-MS). […] Comparison of area integrated under the oxidized and native peaks was used to quantify HC Fab and Fc oxidation. […] By using the papain digest RP-HPLC method in the present study it was possible to investigate Trp residue oxidation by quantifying HC Fab oxidation, and Met residue oxidation by quantifying HC Fc oxidation.
% Fab oxidation and % Fc oxidation were calculated as follows: […]
Antioxidants were added at 1 mM. […] After buffer exchange, each solution was prepared for analysis by reverse-phase HPLC as described above.

mAb1 [4] = experiment: mAb1 light stress study, 16 hours; Fab/Fc oxidation by RP-HPLC; type: physicochemical, human; settings: for Fab oxidation increase over the control level (mAb1 Ref Mat): label mAb1 = No Excipient
Protocol: as §1
Antioxidants were added at 1 mM. Glass vials containing these formulations were exposed to 250 W/m^2 light in an Atlas SunTest CPS+ Xenon Test Instrument (Chicago, Ill.). Control vials were wrapped in aluminum foil and treated similarly. After light exposure, solutions were prepared for analysis by reverse-phase HPLC as described above.

mAb1 [5] = experiment: mAb1 light stress, eight hours, with L-Trp and L-Met; Fab/Fc oxidation by papain digest RP-HPLC; type: physicochemical, human; settings: label mAb1 = No Excipient
Protocol: L-tryptophan (L-Trp), an antioxidant used in protein formulations, has been recently shown to be photosensitive (Igarashi et al., Anal Sci 23(8):943-8 (2007)) and to have the ability to produce H2O2 upon light exposure. […] Control vials were wrapped in aluminum foil and treated similarly. After light exposure, solutions were prepared for analysis by reverse-phase HPLC. […] Following incubation, 900 μL of the solution was combined with 100 μL of 1 M dithiothreitol (DTT) and incubated for another thirty minutes at 37° C. Samples were then run on an Agilent, Inc. 1100/1200 HPLC system (Santa Clara, Calif.) equipped with UV detection at 280 nm in conjunction with a Varian, Inc. Pursuit 3 μm, 2 mm ID×250 mm diphenyl column (Palo Alto, Calif.). Mobile Phase A was 0.1% TFA in water. Mobile Phase B was 0.1% TFA in acetonitrile. The mobile phase gradient increased linearly from 34% B at 0 minutes to 43% B at 50.0 minutes, then to 95% B at 50.1 minutes. The gradient remained at 95% B until 60.1 minutes, and then decreased linearly from 95% B to 34% B between 60.1 and 60.2 minutes. The gradient remained at 34% B until the end of the cycle at 80.2 minutes. The column temperature was 65° C., total flow rate was 0.2 mL/min, and injection volume of each sample was 6 μL. Chromatograms were then integrated for quantification of oxidation.

mAb1 [6] = experiment: mAb1 Fenton stress study (H2O2 + Fe); Fab/Fc oxidation by RP-HPLC; type: physicochemical, human; settings: 10 ppm H2O2, 0.2 mM Fe(III), 40° C. for 3 hours, no excipient
Protocol: Antioxidants were added at a final concentration of 1 mM. […] After incubation, each reaction was quenched by addition of 100 mM L-Met and then prepared for analysis by reverse-phase HPLC as described above.
The Fenton reaction, using a mixture of H2O2 and Fe ions, generates oxidation through a metal catalyzed, hydroxyl radical reaction (Prousek et al., Pure and Applied Chemistry 79(12):2325-2338 (2007)). This reaction generated Fab, i.e. tryptophan, oxidation in mAb1. The reaction was also carried out in the presence of select antioxidants that were useful against both AAPH and light induced oxidation as reported above. Data related to the antioxidant properties against Fenton mediated reaction were analyzed using the RP-HPLC assay as described above. The Fenton reaction used 10 ppm of H2O2 and 0.2 mM of Fe(III). The reaction was incubated at 40° C. for 3 hours, quenched with 100 mM L-Met and analyzed using RP-HPLC after papain digest. All samples were the average of three separate vials, and mAb1 control (Ref Mat) was one vial with five independent injections on the HPLC. […] In regards to protection against Fc oxidation, the tested excipients (other than salicylic acid) performed slightly better than L-Trp.

[7] = 1 mM in 20 mM histidine acetate pH 5.5, four hours of light at 250 W/m^2
[8] = 1 mM, 20 mM L-His-acetate pH 5.5, 4 h light, 0.22 million lux hours
[9] = 16 hours of light at 250 W/m^2, excipient 1 mM

| Compound | (H2O2 produced by Compound)/(H2O2 produced by L-Trp) [1, 7] | H2O2 production upon light exposure compared to L-Trp (in words) [1, 8] | Oxidation Potential (anodic peak) [2] [V vs Ag/AgCl] | Fab (Trp residue) oxidation of mAb1 after AAPH incubation (mAb1 [3]) | Effect on light-induced Fab oxidation (in words) (mAb1 [4]; [9]) | (H2O2 produced by Compound)/(H2O2 produced by L-Trp) ([1]; pH 5.5) | H2O2 production upon light exposure compared to L-Trp (in words) ([1]; pH 5.5) | Oxidation potential relative to L-Trp (in words) ([2]; cyclic voltammetry) | Effect on AAPH-induced Fab oxidation (in words) (mAb1 [3]; AAPH 24 hours at 40° C.) | Fc oxidation under light stress compared to no excipient control (in words) (mAb1 [4]; [9]) | Fab oxidation increase over the control level (mAb1 Ref Mat) (mAb1 [4]; [9]) [fold] | Fab oxidation of mAb1 (mAb1 [5]; 5 mg/mL mAb1, 8 h light at 250 W/m^2, L-Trp at 1 mM) [%] | Effect on Fc oxidation of mAb1 (in words) (mAb1 [5]; 8 h light at 250 W/m^2, L-Met 10, 25, 50, 100 mM added to 1 mM L-Trp) | Increase in Fc oxidation over the control level (mAb1 [4]; 16 hours of light at 250 W/m^2, no excipient) [%] | Oxidation in the Fab region of mAb1 over the control (in words) (mAb1 [6]) |
| --- | --- | --- | --- | --- | --- | --- | --- | --- | --- | --- | --- | --- | --- | --- | --- |
| Oc1ccc2[nH]ccc2c1 [5-Hydroxyindole, 5-Hydroxy Indole] | −0.08 | low levels of H2O2 production | 0.580 | about 2% | reducing Fab oxidation to near control levels | – | – | – | – | – | – | – | – | – | – |
| O=C(O)c1ccccc1O [Salicylic Acid] | – | – | 1.080 | – | – | 0.03 | very little H2O2; also recorded: did not produce much H2O2 | higher oxidation potential than L-Trp | almost no effect on Fab oxidation | more Fc oxidation | 8 | – | – | – | – |
| NCCc1c[nH]c2ccc(O)cc12 [Serotonin (5-Hydroxytryptamine), 5-hydroxytryptamine] | 0.03 | very little H2O2; also recorded: low levels of H2O2 production | 0.600 | about 2% | reducing Fab oxidation to near control levels | – | – | – | – | – | – | – | – | – | – |
| mAb1: monoclonal anti-DR5 antibody, drozitumab (CAS number 912628-39-8), human monoclonal IgG1 | – | – | – | – | – | – | – | – | – | – | 3.5 | 4 | only a minor increase in Fc oxidation | 40 | about four times the oxidation |
